This note sets out measurements from US8501946B2 (Glaxo Group Limited, priority 2009, dated 2013).

The target of the assay is T1, human recombinant P2X7 receptors (Homo sapiens, UniProt Q99572).
T1 construct: expressed in transfected cells
T1 sequence (Q99572 1-595): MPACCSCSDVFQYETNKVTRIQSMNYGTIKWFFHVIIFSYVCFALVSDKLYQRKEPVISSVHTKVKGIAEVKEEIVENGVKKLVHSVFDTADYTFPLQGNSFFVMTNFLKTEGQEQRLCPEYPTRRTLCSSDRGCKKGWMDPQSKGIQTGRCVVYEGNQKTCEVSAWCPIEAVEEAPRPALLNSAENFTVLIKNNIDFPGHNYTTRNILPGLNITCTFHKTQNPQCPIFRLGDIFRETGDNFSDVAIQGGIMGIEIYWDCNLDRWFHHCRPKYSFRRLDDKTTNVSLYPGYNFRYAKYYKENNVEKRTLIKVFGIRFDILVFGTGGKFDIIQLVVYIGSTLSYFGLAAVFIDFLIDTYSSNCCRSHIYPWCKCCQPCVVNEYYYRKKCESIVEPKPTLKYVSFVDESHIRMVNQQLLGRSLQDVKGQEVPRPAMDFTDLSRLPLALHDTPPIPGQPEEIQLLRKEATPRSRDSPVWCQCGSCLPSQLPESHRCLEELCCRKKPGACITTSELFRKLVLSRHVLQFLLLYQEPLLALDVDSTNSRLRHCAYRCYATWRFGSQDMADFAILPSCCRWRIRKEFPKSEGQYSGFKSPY
Kind of assay: Ethidium Accumulation Assay 1 (HEK293 cells, ATP-induced ethidium uptake). The format is cell-based. The note with it: HEK293 cells expressing human P2X7; 1 mM ATP; sometimes mean of more than one measurement; read-out: Assay 1 (antagonist pIC50 for blocking ATP responses) (converted). As for the experimental part:
Eithidium Accumulation Assay 1
Studies were performed using NaCl assay buffer of the following composition: 140 mM NaCl, 10 mM HEPES [4-(2-hydroxyethyl)-1-piperazine-1-ethanesulfonic acid], 5 mM N-methyl-D-glucamine, 5.6 mM KCl, 10 mM D-glucose, 0.5 mM CaCl2 (pH 7.4).
Human Embryonic Kidney (HEK) 293 cells, stably expressing human recombinant P2X7 receptors, were grown in poly-D-lysine pretreated 96 well plates for 18-24 hours.
The cells were washed twice with 350 μl of the assay buffer, before addition of 50 μl of the assay buffer containing the putative P2X7 receptor antagonist compound. (A small amount of dimethyl sulfoxide, for initially dissolving the compound, is optionally used and present in this 50 μl test compound sample.) The cells were then incubated at room temperature (19-21° C.) for 30 min before addition of ATP and ethidium (100 μM final assay concentration). The ATP concentration was chosen to be close to the EC80 for the receptor type and was 1 mM for studies on the human P2X7 receptor. Incubations were continued for 8 or 16 min and were terminated by addition of 25 μl of 1.3M sucrose containing 4 mM of the P2X7 receptor antagonist Reactive Black 5 (Aldrich). […] Antagonist pIC50 values for blocking ATP responses were determined using iterative curve fitting techniques.

Consider `Cc1cccnc1-c1nnc2n1CCN(C(=O)c1cccc(Cl)c1Cl)C2` [Example 66, 7-[(2,3-dichlorophenyl)carbonyl]-3-(3-methyl-2-pyridinyl)-5,6,7,8-tetrahydro[1,2,4]triazolo [4,3-a]pyrazine], for which the IC50 was less than 100 nM.
Under `O=C(c1ccc(Cl)cc1F)N1CCn2c(nnc2-c2cnccn2)C1` [Example 106, 7-[(4-chloro-2-fluorophenyl)carbonyl]-3-(2-pyrazinyl)-5,6,7,8-tetrahydro[1,2,4]triazolo [4,3-a]pyrazine] stands less than 10 nM; under `O=C(c1cccc(C(F)(F)F)c1Cl)N1CCn2c(nnc2C2CC2)C1` [Example 133, 7-{[2-chloro-3-(trifluoromethyl)phenyl]carbonyl}-3-cyclopropyl-5,6,7,8-tetrahydro[1,2,4]triazolo[4,3-a]pyrazine], less than 100 nM; under `O=C(c1cccc(C(F)(F)F)c1Cl)N1CCn2c(nnc2-c2ncc(F)cc2F)C1` [Example 83, 7-{[2-chloro-3-(trifluoromethyl)phenyl]carbonyl}-3-(3,5-difluoro-2-pyridinyl)-5,6,7,8-tetrahydro[1,2,4]triazolo [4,3-a]pyrazine], less than 10 nM.
Under `O=C(c1ccc(F)c(Cl)c1)N1CCn2c(nnc2-c2cnccn2)C1` [Example 105, 7-[(3-chloro-4-fluorophenyl)carbonyl]-3-(2-pyrazinyl)-5,6,7,8-tetrahydro[1,2,4]triazolo [4,3-a]pyrazine] stands less than 100 nM.
The same measure for `O=C(c1cccc(Cl)c1Cl)N1CCn2c(nnc2-c2ccc(F)cc2F)C1` [Example 98]: less than 100 nM; for `O=C(c1ccc(F)cc1Cl)N1CCn2c(nnc2-c2ccc(F)cn2)C1` [Example 40, 7-[(2-chloro-4-fluorophenyl)carbonyl]-3-(5-fluoro-2-pyridinyl)-5,6,7,8-tetrahydro[1,2,4]triazolo [4,3-a]pyrazine]: less than 100 nM; for `O=C(c1cccc(Cl)c1)N1CCn2c(nnc2-c2ccccn2)C1` [Example 80, 7-[(3-chlorophenyl)carbonyl]-3-(2-pyridinyl)-5,6,7,8-tetrahydro[1,2,4]triazolo [4,3-a]pyrazine]: less than 100 nM.
With `O=C(c1ccc(Cl)cc1Cl)N1CCn2c(nnc2-c2ccc(F)cc2)C1` [Example 100, 7-[(2,4-dichlorophenyl)carbonyl]-3-(4-fluorophenyl)-5,6,7,8-tetrahydro[1,2,4]triazolo [4,3-a]pyrazine], the IC50 was less than 100 nM.
As for `O=C(c1ccccc1Cl)N1CCn2c(nnc2-c2ccc(F)cc2)C1` [Example 119, 7-[(2-chlorophenyl)carbonyl]-3-(4-fluorophenyl)-5,6,7,8-tetrahydro[1,2,4]triazolo[4,3-a]pyrazine], the IC50 was less than 100 nM.
Take `O=C(c1ccc(Cl)cc1Cl)N1CCn2c(nnc2-c2cnccn2)C1` [Example 92, 7-[(2,4-dichlorophenyl)carbonyl]-3-(2-pyrazinyl)-5,6,7,8-tetrahydro[1,2,4]triazolo[4,3-a]pyrazine]: the IC50 was less than 10 nM.
Under `O=C(c1ccc(Cl)cc1Cl)N1CCn2c(nnc2-c2ccc(F)cc2F)C1` [Example 101, 7-[(2,4-dichlorophenyl)carbonyl]-3-(2,4-difluorophenyl)-5,6,7,8-tetrahydro[1,2,4]triazolo [4,3-a]pyrazine] stands less than 100 nM; under `O=C(c1ccc(F)cc1Cl)N1CCn2c(nnc2-c2ccccn2)C1` [Example 37, 7-[(2-chloro-4-fluorophenyl)carbonyl]-3-(2-pyridinyl)-5,6,7,8-tetrahydro[1,2,4]triazolo [4,3-a]pyrazine], less than 10 nM; under `O=C(c1cccc(C(F)(F)F)c1Cl)N1CCn2c(nnc2N2CCC2)C1` [Example 22, 3-(1-azetidinyl)-7-{[2-chloro-3-(trifluoromethyl)phenyl]carbonyl}-5,6,7,8-tetrahydro[1,2,4]triazolo [4,3-a]pyrazine], less than 100 nM.
Turning to `O=C(c1cccc(Cl)c1Cl)N1CCn2c(nnc2-c2cccnn2)C1` [Example 57, 7-[(2,3-dichlorophenyl)carbonyl]-3-(3-pyridazinyl)-5,6,7,8-tetrahydro[1,2,4]triazolo [4,3-a]pyrazine], the IC50 is less than 100 nM.
The same measure for `CCc1nnc2n1CCN(C(=O)c1cccc(Cl)c1Cl)C2` [Example 5, 7-[(2,3-dichlorophenyl)carbonyl]-3-ethyl-5,6,7,8-tetrahydro[1,2,4]triazolo [4,3-a]pyrazine]: less than 100 nM.
In the case of `O=C(c1cccc(C(F)(F)F)c1Cl)N1CCn2c(nnc2-c2cccnc2)C1` [Example 16, 7-{[2-Chloro-3-(trifluoromethyl)phenyl]carbonyl}-3-(3-pyridinyl)-5,6,7,8-tetrahydro[1,2,4]triazolo[4,3-a]pyrazine], the IC50 was less than 10 nM.
The same measure for `O=C(c1ccccc1Cl)N1CCn2c(nnc2-c2cscn2)C1` [Example 103, 7-[(2-chlorophenyl)carbonyl]-3-(1,3-thiazol-4-yl)-5,6,7,8-tetrahydro[1,2,4]triazolo [4,3-a]pyrazine]: less than 10 nM; for `O=C(c1ccc(F)cc1Cl)N1CCn2c(nnc2-c2ccc(F)c(F)c2)C1` [Example 124, 7-[(2-chloro-4-fluorophenyl)carbonyl]-3-(3,4-difluorophenyl)-5,6,7,8-tetrahydro[1,2,4]triazolo[4,3-a]pyrazine]: less than 100 nM.
The same measure for `O=C(c1ccc(Cl)cc1F)N1CCn2c(nnc2-c2ccccn2)C1` [Example 96, 7-[(4-chloro-2-fluorophenyl)carbonyl]-3-(2-pyridinyl)-5,6,7,8-tetrahydro[1,2,4]triazolo [4,3-a]pyrazine]: less than 100 nM; for `O=C(c1cccc(C(F)(F)F)c1Cl)N1CCn2c(nnc2-c2ccncn2)C1` [Example 12, 7-{[2-chloro-3-(trifluoromethyl)phenyl]carbonyl}-3-(4-pyrimidinyl)-5,6,7,8-tetrahydro[1,2,4]triazolo[4,3-a]pyrazine]: less than 100 nM.
As for `O=C(c1ccccc1Cl)N1CCn2c(nnc2-c2ncccc2F)C1` [Example 121, 7-[(2-chlorophenyl)carbonyl]-3-(3-fluoro-2-pyridinyl)-5,6,7,8-tetrahydro[1,2,4]triazolo[4,3-a]pyrazine], the IC50 was less than 100 nM.
In the case of `O=C(c1cccc(C(F)(F)F)c1Cl)N1CCn2c(nnc2N2CCCC2)C1` [Example 19, 7-{[2-chloro-3-(trifluoromethyl)phenyl]carbonyl}-3-(1-pyrrolidinyl)-5,6,7,8-tetrahydro[1,2,4]triazolo [4,3-a]pyrazine], the IC50 is less than 100 nM.
Regarding `O=C(c1ccc(Cl)c(F)c1Cl)N1CCn2c(nnc2-c2ccc(F)cn2)C1` [Example 110, 7-[(2,4-Dichloro-3-fluorophenyl)carbonyl]-3-(5-fluoro-2-pyridinyl)-5,6,7,8-tetrahydro[1,2,4]triazolo[4,3-a]pyrazine], the IC50 was less than 10 nM.
Regarding `O=C(c1cccc(Cl)c1Cl)N1CCn2c(nnc2-c2cscn2)C1` [Example 67, 7-[(2,3-dichlorophenyl)carbonyl]-3-(1,3-thiazol-4-yl)-5,6,7,8-tetrahydro[1,2,4]triazolo[4,3-a]pyrazine], the IC50 is less than 10 nM.
For `O=C(c1cccc(C(F)(F)F)c1Cl)N1CCn2c(nnc2-c2ncccc2F)C1` [Example 52, 7-{[2-chloro-3-(trifluoromethyl)phenyl]carbonyl}-3-(3-fluoro-2-pyridinyl)-5,6,7,8-tetrahydro[1,2,4]triazolo [4,3-a]pyrazine], the IC50 was less than 10 nM.
The same measure for `O=C(c1ccc(Cl)cc1Cl)N1CCn2c(nnc2-c2cscn2)C1` [Example 97, 7-[(2,4-dichlorophenyl)carbonyl]-3-(1,3-thiazol-4-yl)-5,6,7,8-tetrahydro[1,2,4]triazolo [4,3-a]pyrazine]: less than 10 nM; for `Cc1cc(-c2nnc3n2CCN(C(=O)c2ccc(F)cc2Cl)C3)no1` [Example 71, 7-[(2-chloro-4-fluorophenyl)carbonyl]-3-(5-methyl-3-isoxazolyl)-5,6,7,8-tetrahydro[1,2,4]triazolo [4,3-a]pyrazine]: less than 501 nM.
Under `O=C(c1cccc(Cl)c1Cl)N1CCn2c(nnc2-c2cccnc2)C1` [Example 61, 7-[(2,3-dichlorophenyl)carbonyl]-3-(3-pyridinyl)-5,6,7,8-tetrahydro[1,2,4]triazolo [4,3-a]pyrazine] stands less than 10 nM.
